Experimental data as given in patent EP0661259B1, “Substituted (5,6)-dihydronaphthalenyl compounds having retinoid-like activity” (BRISTOL-MYERS SQUIBB COMPANY, priority 1994, dated 1995).
Read-outs that look alike come from different tables or passages of the source.

Experiments:
lung line L2987 = assay: Cytotoxicity assay (alamarBlue viability); format: cell-based; details: Homo sapiens
Description: Figure 1, 2 and 3 are the cytotoxicity dose response curves for lung line L2987. […] Briefly, the assayed involved plating 1000 cells per well in a volume of 120 µL in a 96 well flat-bottom dish (Corning) on day -1. Twenty-four hours later the appropriate dilution of a compound of formula I was added in a volume of 30 µL complete medium (final volume 150 µL). The plates were sealed with a plate sealer (Dynatech Labs) to prevent evaporation. On day 5 the mylar film was removed and 15 µL of sterile alamarBlue was added to each well and the cells were incubated 37 °C 5% CO2 for two hours. Using a Vmax plate reader the optical density for each well was determined having the OD570 subtracted from the OD600. The 100% signal was determined for cells grown in complete medium containing only 0.5% DMSO. All wells were set-up in triplicate and the mean values were plotted in Figures 1, 2 and 3.

rhino mouse = assay: Rhino mouse utriculi reduction assay; format: in vivo, female hairless rhino mice (hr^rh/hr^rh); details: concentration to reach 30% utriculi reduction; topical in ethanol vehicle (50ul) to dorsal area once daily for 5 days; tested range 0.00033 mM to 16.5 mM
Description: Representatives from compounds of formula I were tested for their effect on utriculi reduction on rhino mouse and directly compared to all-trans retinoic acid.
Six to nine week old female hairless rhino mice (hr^rh/hr^rh) were produced in the Bristol-Myers Squibb colony. Test retinoids in ethanol vehicle (50ul) were applied to the dorsal area (approximately 1.5 x 3 cm^2) of rhino mice once daily for 5 days (Monday to Friday). For various retinoids, a dose response was obtained with concentrations ranging from 0.00033 mM to 16.5 mM. The animals were sacrificed on the following Monday by CO2 inhalation. A 7/8" full thickness punch was taken from the central dorsal area of each animal. The epidermis of the biopsy was removed from the dermis after incubation in 0.5% acetic acid overnight at 4°C. The separated epidermis was then fixed in formalin, dehydrated with ethanol, and cleared in xylene. To determine the utriculi diameter, each epidermis sheet was placed on a glass slide in xylene. For each specimen, the diameter of 40 utricules was measured with an image analysis system (IBM PC, Image Measure program and Olympus microscope with video camera). % Utriculi reduction was calculated as (1 -(utriculi diameter in the test group)/(utriculi diammeter in the ethanol control group))× 100% [formula] […]

[1] = L2987, L2987 experiment 2, 1000 cells per well, compound added after 24 h, read on day 5, read-out: IC50

Compound	IC50 (lung line L2987; L2987)	ED30 (rhino mouse)	IC50 (lung line L2987; [1])
CC1=C(/C=C/C(C)=C/C=C/C(C)=C/C(=O)O)C(C)(C)CCC1 [All trans retinoic acid, reference compound]	68 µM		
CC1(C)C=C(c2ccccc2)c2cc(C(=O)Nc3ccc(C(=O)O)cc3)ccc21 [I^30a, 4-[(1,1-Dimethyl-3-phenyl-1H-indene-5-carbonyl)amino]benzoic acid]		2.35	60 µM
CC1(C)CC=C(c2ccccc2)c2cc(C(=O)Nc3ccc(C(=O)O)cc3)ccc21 [I^4a]			28 µM
CC1(C)CC=C(c2ccccc2)c2cc(C(=O)Oc3ccc(C(=O)O)cc3)ccc21 [I^10a]			47 µM
CC1(C)CC=C(c2ccccc2)c2cc(C(=O)Sc3ccc(C(=O)O)cc3)ccc21 [I^12a]			> 100 µM
CC1(C)CC=C(c2ccccc2)c2cc(COc3ccc(C(=O)O)cc3)ccc21 [I^26a, 4-[[[(5,6-Dihydro-5,5-dimethyl-8-phenyl)-2-naphthalenyl]methyl]oxy]benzoic acid]			48 µM
CC1(C)C=C(c2ccccc2)c2cc(C=Cc3ccc(C(=O)O)cc3)ccc21 [I^33a, 4-[2-(1,1-dimethyl-3-phenyl-1H-inden-5-yl)vinyl]benzoic acid]		0.86	
